The values that follow come from paper PMC10298982, “Stability Characterization of the Novel Anti-Cancer HM-10/10 HDL-Mimetic Peptide” (International Journal of Molecular Sciences, 2023).

The target in series [1] is T1, CYP2C19 (Homo sapiens, UniProt P33261). The experiment in a line: CYP450 time-dependent inhibition, CYP2C19, pooled human liver microsomes. The note with it: Mephenytoin (2C19). For orientation: Liver microsomes are a subcellular fraction often used to study metabolism.
In series [2] the target is T1, CYP2C19.
For series [3], the system named is CYP1A2. The experiment in a line: CYP1A2 induction (mRNA expression) in single-donor human hepatocytes. Type of series: in vitro ADME. The settings on record: 50 µM (control). On the procedure:
RNA isolation and quantification: E-Z 96 Total RNA Kit (Omega Bio-tek, Catalog No. R1034-02) was used for RNA isolation and Quant-iT RNA assay kit (ThermoFisher, Catalog No. Q33140) was used for RNA quantification. The plates were removed from a −80 °C freezer and equilibrated to room temperature. RNA was extracted using the manufacturer’s recommended protocol. Eighty-one microliters of 100% ethanol were added into each well containing 150 µL of lysed sample to make a final ethanol concentration at 35%.
cDNA generation: For cDNA generation, a High-Capacity cDNA Reverse Transcription Kit (Applied Biosystems, Catalog No. 4319983) and QuantStudio 3 PCR system (Applied Biosystems) were used. In this step, 2X Reverse Transcription Master Mix was prepared using the contents of the kit. Then, 10 µL of total RNA was added to 10 µL of 2X Reverse Transcription Master Mix in a microplate and the plate was sealed. This plate was then run in a thermocycler to generate cDNA.
Real time PCR: SsoAdvanced Universal SYBR® Green Supermix (BIO-RAD, Catalog No. 172-5270) and the QuantStudio 3 Real-Time PCR system (Applied Biosystems) were used to perform real-time PCR on the generated cDNA. In this step, a PCR mix was prepared using PCR Supermix, SYBR® primers for the targeted genes, and nuclease-free water. Two microliters of ten-fold diluted cDNA samples (5 µL of cDNA into 45 μL of nuclease-free water) were added to 8 µL of PCR Mix in a microplate and sealed. This plate was then run through the Real-Time PCR system to generate the mRNA expression data.
• Human GAPDH • F: […] • R: […] • Human CYP1A2 • Unique Assay ID: qHsaCID0015160 • Chromosome Location: 15:75045562-75047256 • Human CYP2B6 • F: […] • R: […] • Human CYP3A4 • F: […] • R: […]

For series [4], the target named is T1, CYP2C19. The experiment in a line: in vitro. The note with it: both, microsomes.
The test system of series [5] is Sprague-Dawley rat plasma proteins. The note with it: 2.5 h, 2 µM, pH 7.4.
A short description of series [6]: in vitro. The note with it: Sprague-Dawley, rat, plasma, pH 7.4.
The test system of series [7] is cynomolgus monkey plasma proteins. The settings on record: 2.5 h, 2 µM, pH 7.4.
Series [8] in a line: in vitro. The settings on record: cynomolgus monkey, plasma, pH 7.4.
Series [9] concerns beagle dog plasma proteins. The settings on record: 2.5 h, 2 µM, pH 7.4.
Series [10] can be described thus: in vitro. The note with it: beagle, dog, plasma, pH 7.4.
Series [11] is described as follows: in vitro. The settings on record: CD-1, mouse, plasma.

T1 sequence (P33261 whole entry): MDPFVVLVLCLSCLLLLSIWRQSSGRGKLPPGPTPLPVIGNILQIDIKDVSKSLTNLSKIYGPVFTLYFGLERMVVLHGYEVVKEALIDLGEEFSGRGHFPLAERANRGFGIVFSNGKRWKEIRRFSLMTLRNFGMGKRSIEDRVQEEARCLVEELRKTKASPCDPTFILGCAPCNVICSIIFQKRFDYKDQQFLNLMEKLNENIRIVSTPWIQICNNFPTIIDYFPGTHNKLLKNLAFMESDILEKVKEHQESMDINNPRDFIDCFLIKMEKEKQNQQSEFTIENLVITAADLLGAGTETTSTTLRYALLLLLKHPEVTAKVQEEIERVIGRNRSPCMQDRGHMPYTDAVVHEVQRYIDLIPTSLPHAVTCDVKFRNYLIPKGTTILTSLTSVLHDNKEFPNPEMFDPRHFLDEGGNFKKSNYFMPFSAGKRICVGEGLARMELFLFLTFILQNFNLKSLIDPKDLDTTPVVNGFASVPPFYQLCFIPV

What is called IC50 is the point on the concentration scale where inhibition reaches its midpoint. In general, inhibition refers to the percentage by which the read-out fell short of the control. As to `COc1ccc2[nH]c([S+]([O-])Cc3ncc(C)c(OC)c3C)nc2c1` (stereo not drawn) [Omeprazole, omeprazole], the IC50 in series [1] (IC50 (µM) No PI + NADPH, No PI + NADPH) came to 4.77 µM; in series [1] (IC50 (µM) No PI − NADPH, No PI − NADPH), 5.39 µM. The “Comments (time-dependent inhibition)” value in series [2] is reported as “+TDI”. Besides, the “Comments (mRNA induction)” value in [3] is recorded as “Induced as Expected”. Further, the inhibition at 30 min, 50 µM is 92.9% in series [4] (pH 7.4, % Inhibition at 50 µM No PI + NADPH); 93.1% in series [4] (pH 7.4, % Inhibition at 50 µM No PI − NADPH); 95.8% in series [4] (pH 7.4, % Inhibition at 50 µM PI + NADPH); 90.7% in series [4] (pH 7.4, % Inhibition at 50 µM PI − NADPH).

One may read the fraction unbound as the share of the substance not bound to proteins or other matrix. For `CC(=O)CC(c1ccccc1)c1c(O)c2ccccc2oc1=O` (stereo not drawn) [Warfarin], the “% Protein Free Mean ± SD” value in series [5] was determined as 0.7 ± 0.1%; in [7] it was 0.9 ± 0.1%; in [9] it was 3.1 ± 0.4%. For the same compound, the figures for the fraction remaining at 2.5 h, 2 µM in [6], in series [10] and in series [11] (pH 7.4) were 105%, 105% and 108%, respectively. Also, the free fraction (fraction unbound) at 2.5 h, 2 µM in series [8] stood at 0.0086 ± 0.00116; in series [10] it was 0.0305 ± 0.0036; in [11] (pH 7.4, % Protein Free Mean ± SD), 0.04 ± 0.002; in series [11] (pH 7.4, Fu (Unbound Fraction) Mean ± SD), 0.0398 ± 0.0016.
